Assay results from patent US20160361444A1, “USE OF IVABRADINE AS DIAGNOSTIC AGENT IN THE METHOD OF CORONARY ANGIOGRAPHY BY MULTISLICE COMPUTED TOMOGRAPHY” (LES LABORATOIRES SERVIER, priority 2008, published 2016).

Assay: Clinical study: effect of i.v. administration of ivabradine hydrochloride on heart rate in healthy volunteers
Type: in vivo
Conditions: i.v. bolus of ivabradine hydrochloride solution containing 16 mg ivabradine base, resting heart rate (lying position) at T0+30 min, vs placebo control group
Method: Clinical Study. Effect of i.v. Administration of Ivabradine Hydrochloride on Heart Rate in Healthy Volunteers.
Resting heart rate (in a lying position) is measured at T0. The subjects are then given an i.v. bolus of a solution of ivabradine hydrochloride containing 16 mg of ivabradine base (treated group, n=8) or of placebo (control group, n=2). The resting heart rate (in a lying position) is again measured at T0+30 min.

Compound: COc1cc2c(cc1OC)CC(=O)N(CCCN(C)C[C@H]1Cc3cc(OC)c(OC)cc31)CC2 [ivabradine]
- heart rate lower than the heart rate in the control group: 16%
